Measurements: patent US7390411B2, “Method for preparing a compound of interaction of active substances with a porous support using supercritical fluid” (Pierre Fabre Medicament, priority 2001, dated 2008)
≈ marks a conversion by molar mass, not a printed value. Each block holds one molecule with its values, some of them ahead of it.

Legend:
Format in all cases: physicochemical
[1] = Dissolution tests on product F12511 (HPLC, 5% sodium lauryl sulfate, 2 hours)
Method: Dissolution Tests on Product F12511
Spectrophotometric detector set at 220 nm.
C8 graft column (Lichrospher 60RP-Select B), dimensions 25×0.4 cm, particle size: 5 μm.
Flow Rate: 1 ml/min Preparation of Solutions: Solution Under Examination
Introduce an amount of complex corresponding to approximately 100 mg of product F12511 into 100 ml of 5% (m/V) sodium lauryl sulfate in H2O. Subject the system to magnetic stirring in a waterbath at 37° C.±0.5° C. Withdraw 2 ml sample of this suspension after 2 hours of stirring and filter it on a Gelman GHP Acrodisc GF (R) filter.
Dilute the samples 1/5 in the mobile phase. Carry out 2 tests.
Introduce 8 mg of reference product F12511 (starting material used to prepare the complex) in a 100 ml flask and dissolve it in 1 ml of tetrahydrofuran (THF). Make up to volume with the mobile phase.
Inject 20 μl of each control solution. Measure the area of the peak of product F12511 and represent its variation as a function of concentration in the form of a graph. The correlation coefficient is>0.995. Inject 20 μl of the test solution. Measure the area of the peak of product F12511 present in the test solution, and ensure that it lies between that of T1 and of T5 in the range.
If this is not the case, perform a dilution in the solubilizing solvent and/or adjust the injection volume of the test solution.
From this, work out the concentration X (μg/ml) of the test solution.
Calculate the amount of dissolved product F12511 in mg/ml by the following formula:
[formula] • Y: injection volume of the test solution • F: dilution factor Measurements of Specific Surface Areas

[2] = Measurements of specific surface areas (BET); conditions: specific surface area
Method: The specific surface area measurements were carried out on a BET ASAP 2010 adsorption apparatus from Micrometrics.
Before the measuring phase, the sample requires a degassing step. This step consists in evacuating the cell containing the sample until a vacuum of at least 0.003 mm Hg, or approximately 0.004 mbar, is reached stably. This degassing is carried out at a temperature of 50° C. (duration: approximately 16 hours).
At the end of degassing, the cell containing the sample is filled with helium and transferred to the measuring station, where evacuation is repeated before analysis.
Processing of the Adsorption Isotherms
The specific surface area was determined in accordance with the BET theory, i.e., in accordance with the following relationship:
[formula] • W: volume of gas adsorbed (under standard temperature and pressure (STP) conditions) per unit mass of sample. • Wm: volume of gas adsorbed (under STP conditions) in a monolayer per unit mass of sample. • P0: saturation pressure. • C: constant.
The isotherm is then plotted as follows:
As a function of P/P0: we then have a straight line of which the slope and the ordinate at the origin give us C and Wm.
The specific surface area is then given by the following formula: a(m^2·g^−1)=NmNAE • E: space occupancy of the nitrogen molecule. For nitrogen at 77 K operating temperature this is generally taken to be E=0.162 nm^2. • NA: Avogadro's number. • Nm: number of moles of nitrogen adsorbed on a monolayer per unit mass of sample, calculated from Wm. The measurements are carried out within a conventional field of relative pressure in which the BET theory is valid, namely 0.05<P/P0<0.2. In order to verify the validity of this theory, one practical means is to look at the direction in which the quantity Nadsorbed. (1-P/P0) changes as a function of P/P0: it should increase continually with P/P0.
Verify the range of applicability of the BET theory in this way, and if necessary readjust the range of relative pressures.

[3] = Dissolution test ketoprofen powders (UV 260 nm); conditions: water, 37° C.
Method: Powder Analysis Protocol: Dissolution Test Operating conditions:
UV analysis at a wavelength of 260 nm.
Prepare a standard solution in H2O. Ensure that an absorbance<2 is maintained.
(§1) Execution of the Analysis:
(§2) Dissolve the powder with magnetic stirring using a stirrer bar in a waterbath at 37±0.5° C.
(§3) Withdraw 2 ml of this suspension after 2 hours of stirring and filter it on a 0.45 μm Gelman GHP filter. Carry out the UV analysis, ensuring that the absorbance is less than 2. If it is not, carry out dilution.

[4] = Dissolution test terfenadine powders (UV 259 nm); conditions: water, 37° C.
Method: Powder Analysis Protocol: Dissolution Test Operating Conditions:
UV analysis at a wavelength of 259 nm.
Prepare a standard solution in 1% (m/v) sodium lauryl sulfate in H2O. Ensure that an absorbance<2 is maintained.
as §1, §2, §3

[5] = Comparative Example 1, 2 hours, 5% sodium lauryl sulfate, 37° C.
[6] = Comparative Example 2, dissolution after two hours, 5% sodium lauryl sulfate, 37° C.

SMILES: CCCCCCCCCCCCS[C@H](C(=O)Nc1cc(C)c(O)c(C)c1C)c1ccccc1
Dissolution ([1]; Comparative Example 5 (F12511 generated by SAS/ethanol), 2 hours, 5% sodium lauryl sulfate, 37° C.): 80 µg/mL
Dissolution ([1]; Comparative Example 6 (F12511 generated by SAS/DMSO), 2 hours, 5% sodium lauryl sulfate, 37° C.): 57 µg/mL
Dissolution ([1]; Comparative Example 7 (F12511 generated by RESS), 2 hours, 5% sodium lauryl sulfate, 37° C.): 8 µg/mL

SMILES: CCCCCCCCCCCCS[C@H](C(=O)Nc1cc(C)c(O)c(C)c1C)c1ccccc1 [Example F12511, (S)-2′,3′,5′-trimethyl-4′-hydroxy-α-dodecylthiophenyl-acetanilide]
Dissolution [1, 5]: 6 to 12 µg/mL
Dissolution [1, 6]: 12 µg/mL
Dissolution ([1]; Comparative Example 3, 2 hours, 5% sodium lauryl sulfate, 37° C.): 12 µg/mL
Dissolution ([1]; Comparative Example 5 (F12511 generated by SAS/ethanol), 2 hours, 5% sodium lauryl sulfate, 37° C., listed as F12511 before precipitation): ~15 µg/mL
Dissolution ([1]; Comparative Example 6 (F12511 generated by SAS/DMSO), 2 hours, 5% sodium lauryl sulfate, 37° C., listed as F12511 before precipitation): 5 µg/mL
Dissolution ([1]; Comparative Example 7 (F12511 generated by RESS), 2 hours, 5% sodium lauryl sulfate, 37° C., listed as F12511 before precipitation): ~10 µg/mL
Dissolution ([1]; Example 4 (coprecipitation SAS/DMSO with γ-cyclodextrin), 2 hours, 5% sodium lauryl sulfate, 37° C.): ~15 µg/mL
Dissolution of 2 hours, Active principle alone ([1]; F12511 alone): 12 µg/mL
solubility after 2 hours in 5% aqueous sodium lauryl sulfate solution ([1]; after 2 hours, 5% aqueous sodium lauryl sulfate): 6 µg/mL (≈ 12.8 µM)
BET ([2]; Comparative Example 1): 14 m^2/g
BET ([2]; Comparative Example 2): 14 m^2/g

SMILES: CCCCCCCCCCCCS[C@H](C(=O)Nc1cc(C)c(O)c(C)c1C)c1ccccc1 [F12511 precipitated by RESS]
Dissolution [1, 6]: 76 µg/mL
Dissolution ([1]; summary table, powder after precipitation or coprecipitation only, no molecular diffusion, listed as Comp. Ex. 2): 76 µg/mL
BET ([2]; Comparative Example 2): 67 m^2/g

SMILES: CCCCCCCCCCCCS[C@H](C(=O)Nc1cc(C)c(O)c(C)c1C)c1ccccc1 [F12511 precipitated by SAS]
Dissolution [1, 5]: 62 µg/mL
Dissolution ([1]; summary table, powder after precipitation or coprecipitation only, no molecular diffusion): 62 µg/mL
BET ([2]; Comparative Example 1): 54 m^2/g

concentration after 2 hours of dissolution, Active principle alone [3]: 333 µg/mL
SMILES: CC(C(=O)O)c1cccc(C(=O)c2ccccc2)c1 (stereo not shown) [Ketoprofen]

concentration after 2 hours of dissolution, Active principle alone [4]: <1 µg/mL
SMILES: CC(C)(C)c1ccc(C(O)CCCN2CCC(C(O)(c3ccccc3)c3ccccc3)CC2)cc1 (stereo not shown) [Terfenadine]
